This is an account of results in US20110092433A1, “FGF9-RELATED METHODS FOR TREATING ANXIETY” (THE BOARD OF TRUSTEES OF THE LELAND STANFORD JUNIOR …, priority 2007, published 2011).

The subject of assay [1] is Rodents. Nature of the assay: Forced swim test (FST) after microinjection. Format: in vivo. As to conditions: acute microinjection, versus controls. The source says:
(§1) This is also in the same direction as the FGF2 data, consistent with the fact that both FGF2 and NCAM interact with the FGF receptor.
(§2) These observations are nevertheless consistent with the conclusions drawn from the microinjection studies above.

Assay [2] deals with Rodents. Nature of the assay: Elevated plus maze (EPM) after microinjection. The class given is in vivo. As to conditions: for time in the center quadrant of EPM / time in the closed arms of EPM / time in the open arms of EPM: acute microinjection, versus controls.
From the text: as §1, §2

Assay [3] has as its system FGFR2 and FGFR3 exon IIIc:IIIb splice variant ratio. As to the kind of experiment: Real time RT-PCR of exon IIIc:IIIb splice variant ratio in frontal cortex. The class given is in vivo, rat. The following applies: FGF2 5 ng/g i.p. every 48 hours for three weeks, NS or S group, P>0.1. The procedure:
Animals. Twenty-four male Sprague-Dawley rats weighing 220-250g were ordered from Charles River (Wilmington, Mass.) and remained undisturbed for one week to acclimatize to housing conditions. The animals were housed in pairs on a 12 h light-dark cycle (lights on 6:00 A.M.) with food and water available ad libitum. All experiments were conducted in accordance with the NIH Guide for the Care and Use of Animals and the University Committee on the Use and Care of Animals.
FGF2 injection treatments and chronic unpredictable stress (CUS) conditions. […]
Total RNA extraction. […] Using the Bioanalyzer's concentration readings, the samples were normalized to 25 ng/μL of total RNA per subject and stored at −80° C.
cDNA synthesis. cDNA was synthesized using the iScript cDNA Synthesis Kit (Bio-Rad, Hercules, Calif.). […] The double-stranded cDNA solutions were then analyzed for quality and concentration using Invitrogen's Quant-iT PicoGreen dsDNA kit. […] The fluorescently labeled samples were analyzed with a 1420 Victor^2 Multilabel Counter (EG&G Wallac, Wellesley, Mass.) using the basic Fluorescein protocol. […]
Real time RT-PCR primer design. […] Exon sequences were analyzed using NCBI's nucleotide and protein BLAST and were matched with their corresponding protein products within the receptor structures (FIG. 11). […]

Assay [4] has as its system Sprague-Dawley rats. As to the kind of experiment: Morris water maze in adults after early postnatal FGF2. Format: in vivo, rat. As to conditions: FGF2 20 ng/g s.c. the day after birth, tested as adults. The procedure:
(§3) Methods. Sprague-Dawley rats were injected with either vehicle or FGF2 (20 ng/g, s.c.) the day after birth and sacrificed after Morris water maze testing as adults. We assessed changes in gene expression using both a candidate approach and a gene discovery approach with laser-capture microdissection of the dentate gyrus followed by microarray analyses.

For assay [5], the system named is hippocampal gene expression. As to the kind of experiment: Hippocampal gene expression in adults after early postnatal FGF2 (histochemical and RNA expression assays). Format: in vivo, rat. As to conditions: adult rats, FGF2 20 ng/g s.c. the day after birth. The procedure:
as §3

The test system of assay [6] is Sprague-Dawley rats. Nature of the assay: Forced swim testing after chronic FGF2. The class given is in vivo, rat. As to conditions: chronic FGF2 administration. The procedure: FGF2 injection treatments and chronic unpredictable stress (CUS) conditions. Half of the rats (n=12) were administered vehicle (0.1M PBS with 100 μg/mL bovine serum albumin), and the other half (n=12) were administered human recombinant FGF2 dissolved in vehicle in 5 ng/g dosages (Sigma, St. Louis, Mo.) every 48 hours for three weeks. All treatments were injected intra-peritonealy. During the same three week period as the FGF2 treatments, the vehicle group was either handled (n=6) or exposed to CUS (n=6). Likewise, the FGF2 injected group was either handled (n=6) or exposed to CUS (n=6). The animals were exposed to the following chronic unpredictable stressors (described in Isgor et al. (2004)): ether (30 s), cold (2 h), noise (15 m), isolation (24 h), or restraint (2 h). The stressors were randomized to avoid habituation; sessions occurred once each day in either the morning or afternoon. The 2×2 (condition by treatment) design divided the subjects into nonstressed/vehicle (NS/V), nonstressed/FGF2 injection (NS/F), stressed/vehicle (S/V), and stressed/FGF2 injection (S/F) groups.
Forced swim testing. To test for possible FGF2 injection effects on anti-depressant behavior for other studies, all animals were subjected to forced swim testing according to Lucki (1997) 24 h after the termination of the FGF2 treatments and CUS conditions.

Another assay concerns rats. As to the kind of experiment: Elevated plus-maze (EPM) and light-dark (LD) anxiety test after chronic FGF2. The following applies: FGF2 5 ng/g i.p. every 48 hours for 3 weeks. Format: in vivo, rat. The procedure:
Anxiety disorders have a high comorbidity with other neuropsychiatric disorders including Major Depression (MD). […] Rats were placed into “high anxiety” (LR) or “low anxiety” (HR) groups based on their behavior in a variety of motor and behavioral tests. Both groups of animals were administered either FGF2 (5 ng/g) or vehicle by intraperitoneal injection every 48 hours for 3 weeks. One day after the last FGF2 injection, all animals were tested in the elevated plus-maze (EPM) and light-dark (LD) anxiety test.
The apparatus for the EPM test is constructed of black Plexiglass with […] (70 cm from the floor, 45 cm long, and 12 cm wide). Illumination is provided by a 40-watt desk lamp facing a wall and placed behind one of the closed arms. The scientists put the animal inside the system. Animals that are less anxious spend more time in the open arms whereas animals that are more anxious spend less time in the open arms.
The LD test is conducted in a 30×60×30-cm Plexiglas shuttle box with a translucent cover. Each box is divided into two equal-sized compartments by a wall with a 12 cm-wide open door. One compartment is painted white and brightly illuminated, and the other is painted black with very dim light. The time each rat spends in each compartment is monitored by rows of five photocells located 2.5 cm above the grid floor of each compartment. […]

On to EVYVVAENQQGKSKA [NCAM], for which, in the assay on Rodents [1], the “depression-like behavior (FST)” value was “less depression-like behavior” and the “immobility in FST” value is listed as “less immobility”. Moreover, in the assay with Rodents [2], the “time in the center quadrant of EPM” value is recorded as “significantly less time”, the “time in the closed arms of EPM” value is “more time (although not signficantly more time)” and the “time in the open arms of EPM” value was “less time”.

As to “FGF2: human recombinant FGF2 (Sigma), fibroblast growth factor 2”, in assay [3], the “effect on exon IIIc:IIIb ratio” value is “did not alter”. Further, in the assay on Rodents [1], the “depression-like behavior (FST)” value is recorded as “less depression-like behavior”, the “immobility in FST” value is “less immobility” and the “swimming in FST” value is given as “more swimming”. For the same substance, the “time to find a hidden platform in Morris Water maze test (average)” value with Sprague-Dawley rats [4] came to 20 s. For the same substance, the “performance in learning and memory tests” value in the assay on Sprague-Dawley rats [4] (versus vehicle) was “significantly better”. In assay [5], the “expression of CCK” value is reported as “increased”, the “expression of GAP-43” value is listed as “increased”, the “expression of NCAM” value is listed as “decreased” and the “expression of Rgs4” value is “increased”. Besides, in assay [5], the “expression of SST” value is given as “increased”, the “expression of Vgf” value is “increased” and the “expression of trkB” value was “increased”. The “anxiety-like behavior (EPM)” value in the assay with Rodents [2] (acute injection) is “increased”. In the assay on Rodents [2], the “time in the closed arms of EPM” value is on record as “significantly more time” and the “time in the open arms of EPM” value was “less time”. For the same substance, the depression-like behavior entry in the assay with Sprague-Dawley rats [6] is “decreases depression-like behavior”. Moreover, in the assay with rats, the anxiety versus vehicle result was “less anxious”. For the same substance, in the assay with rats (LR versus HR), the “anxiety-reducing effects in innately more anxious (LR) rats” value was “more pronounced”.

As for “HFKDPKRLY [FGF system peptide inhibitor]”, in the assay with Rodents [1], the “climbing in FST” value is on record as “significantly less climbing”, the “depression-like behavior (FST)” value was “increased depression-like behavior”, the “immobility in FST” value is reported as “more immobility” and the “swimming in FST” value was “less swimming”. Moreover, in the assay on Rodents [2], the “time in the center quadrant of EPM” value was “significantly more time”, the “time in the closed arms of EPM” value is reported as “less time” and the “time in the open arms of EPM” value was “equal time”.
